Measurements: publication PMC4961458 (eLife, 2016)

Columns and labels:
WHIM20 tumors = format: in vivo, mice; conditions: no E2 pellets; GDC-0810 100 mg/kg/day; tamoxifen 60 mg/kg/day; fulvestrant 50 mg/kg days 1, 3 and 7, 25 mg/kg weekly thereafter; 35 days
Source text: Figure 8. […] (B) Gene expression analysis of WHIM20 tumors after 4 days of dosing, harvested 8 hr after the final dose. […] (E) WHIM20 tumors were implanted in mice without supplemental 17β-estradiol pellets.
The WHIM20 patient derived xenograft model (WHIM20) was established via direct implantation of metastatic tumor material into immune compromised mice at Washington University in St. Louis ([Li et al., 2013]).
Tumors were established from fragments obtained from Washington University by subcutaneous implantation via 10G trocar into the right flank of 6–7 week old female NOD.CB17-Prkdc^scid/NcrCrl mice (Charles River Laboratories) and NOD.Cg-Prkdc^scid Il2rg^tm1Wjl/SzJ mice (Jackson Laboratories). Tumor line was propagated by serial transplantation. Animals were ovariectomized prior to initiation of treatment.

uterus of juvenile rats = test: Juvenile rat uterus assays; format: in vivo, Sprague Dawley rats; conditions: fulvestrant 50 mg/kg
Source text: […] Rats were euthanized 4 hr after the final dose. Uteri were then dissected, weighed and fixed for histological examination. A small portion of tissue was saved prior to fixation for mRNA isolation and gene expression analysis.
H&E stained sections from bilateral representative uterine horn cross-sections were examined from two animals treated with the compounds shown. Endometrial cell height was digitally measured from the basement membrane to the apical (luminal) surface (orange line), using a digitally scanned image at 20X magnification. Obliquely cut areas were avoided. Three digital measurements were taken from each section (n = 6).
Estrogen receptor was detected using the mouse monoclonal anti-ER (clone 1D5, Dako), incubated for 60 min at RT at a dilution of 0.5 µg/ml, and visualized after secondary rabbit anti-mouse antibody binding with Powervision DAB (Leica Powersystems). H-scores were estimated manually, incorporating both intensity and percentage of positive nuclei, using the following formula: (0 x% negative)+(1 x% weak)+(2 x% moderate)+(3 x% strong)

[1] = system: HCI-003 patient derived xenograft tumors; test: HCI-003 patient derived xenograft efficacy; format: in vivo, mice; conditions: tamoxifen 60 mg/kg/day orally; fulvestrant 200 mg/kg 3x/week; 38 days
Source text: Like MCF7, HCI-003 tumors are ER+, E2 dependent and tamoxifen sensitive (Figure 4—figure supplement 1C). […] Lack of efficacy in this ER-negative model is consistent with the GDC-0810 mechanism of action being selectively mediated through ER.
The HCI-003 model was established at the University of Utah, Huntsman Cancer Center via direct implantation of both primary tumor material into immune compromised mice ([DeRose et al., 2011]). HCI-003 is wild-type at the ESR1 ligand binding domain. Exogenous estradiol is required for robust growth of this patient derived tumor line, and is supplied in the form of estradiol impregnated beeswax pellets. Tumor fragments obtained from the Huntsman Cancer Center were surgically implanted into the cleared mammary fat pad of 19 day old female NOD.CB17-Prkdc^scid/NcrCrl mice (Charles River Laboratories). The right mammary fat pad of recipient animals was exposed by a 1 cm incision on the ventral mid-line at the level of the fourth mammary. The blood vessels were cauterized and the fat pad blunt dissected from the abdominal wall and skin. Tumor fragments were excised from donor animals, chopped into fragments approximately 8 mm^3 (2 × 2 × 2 mm), implanted in the region of the cleared mammary fat pad, and the incision was closed with wound clips. Estradiol impregnated beeswax pellets were implanted subcutaneously into the interscapular space of recipient animals on the day of tumor implant. Recipient animals were ovariectomized 19 days after tumor fragment implant. One group of animals was designated as a control for estradiol independent tumor growth (Vehicle-E2) and the estradiol impregnated pellets were excised on the first day of dosing. All mice were housed and maintained according to the animal-use guidelines of the Institutional Animal Care and Use Committee (IACUC), conforming to California State legal and ethical practices.

TamR1 tumors = test: Tamoxifen-resistant MCF7 (TamR1) xenograft efficacy; format: in vivo, mice; conditions: 0.18 mg 60 day E2 pellets; tamoxifen 120 mg/kg/day p.o.; fulvestrant 200 mg/kg 3x/week s.c.; GDC-0810 10, 30 or 100 mg/kg/day p.o.; 27 days
Protocol: We previously generated a tamoxifen-resistant xenograft model, TamR1, by chronically treating MCF7 tumor bearing mice with tamoxifen until a resistant tumor emerged ([Lai et al., 2015]). […] These experiments were conducted in mice with relatively high levels of circulating estradiol, with estradiol being delivered via 0.72 mg 60 day release E2 pellets that are reported by the manufacturer (Innovative Research) to deliver between 300 and 400 pg/ml estradiol. Under these conditions the high E2 reduces the steady state ERα protein levels, thus confounding the readout of ERα protein as a pharmacodynamic endpoint (Figure 5—figure supplement 1). […] These pellets are sufficient to support tumor growth but only modestly reduce ERα levels (Figure 5—figure supplement 1).
Figure 5. […] (A) Tamoxifen-resistant MCF7 tumors were implanted in animals supplemented with 60-day release 0.18 mg 17β-estradiol pellets. […] S.c. is sub-cutaneous dosing, and p.o. is per os (by mouth) oral gavage dosing. * Denotes significance (p<0.05) compared to Vehicle in 1-Way ANOVA and Dunnett's Multiple Comparison Test. Figure 5—figure supplement 1. Effects of estradiol pellet on ERα levels in MCF7-TamR1 xenograft tumors. TamR1 tumor fragments were implanted into Crl:NU-Foxn1^nu mice implanted with either 0.72 or 0.18 mg/60 day 17-β estradiol pellets. Once tumors were established pellets were removed from 1 group. 28 days after pellet removal ERα protein levels were determined for 4 tumors from each group. Data is presented as average compared to Vehicle (-E2). Error is standard deviation. * Denotes significance (p<0.05) compared to Vehicle (-E2) by T-test. [drawing 7] […] (A) ERα protein levels were determined by western blot analysis of tumors 8 hr following the final compound treatment on day 27. […] KI-67 expression, quantified from IHC analysis. […]
The tamoxifen-resistant derivative of the ER+ human tumor cell line, MCF7 (TamR1) was developed by Seragon Pharmaceuticals, Inc ([Lai et al., 2015]). […] The tumors which continued to grow under these conditions were serially passaged and evaluated for continued tamoxifen resistance. […]

## CC/C(=C(\c1ccccc1)c1ccc(OCCN(C)C)cc1)c1ccccc1 [Tamoxifen]
WHIM20 tumors
  Tumor growth response, WHIM20 PDX: induced tumor stasis
Uterus of juvenile rats; tamoxifen 60 mg/kg orally once a day for 3 days, GDC-0810 0.1 or 10 mg/kg, relative to vehicle control
  Uterine wet weight: increases uterine wet weight
Uterus of juvenile rats; tamoxifen 60 mg/kg, GDC-0810 0.1 and 10 mg/kg
  Endometrial epithelial cell morphology (histology, endometrial cell height): induced a cuboidal to columnar morphological change
[1]
  Anti-tumor activity, HCI-003 PDX (Figure 4—figure supplement 1C): display anti-tumor activity
TamR1 tumors
  Tumor growth response, TamR1 xenograft, lower E2: stimulated tumor growth
